{
  "source": "patent US20260216352A1",
  "about": "“DIRECTED BIOSYNTHESIS OF MODIFIED ANTHRAQUINONE-FUSED ENEDIYNES AS POTENTIAL CANCER THERAPEUTICS” (The Johns Hopkins University, priority 2023, published 2026)",
  "key": {"[1]": {"test_system": "wild type M. chersina", "test": "Small-scale supplementation of wild type M. chersina fermentation and analysis of dynemicin A production", "set-up": "species or system Micromonospora chersina", "settings": "for Restoration of Dyn production: wild type M. chersina, no added NaI / sodium halide in the fermentation medium", "protocol": "Samples cut from medium 53 agar were used to inoculate 50 mL liquid medium 53 cultures. The cultures were shaken at 28° C. for seven days. Then, samples from these vegetative cultures were used to inoculate H881 media (10 g/L soluble starch, 5 g/L Pharmamedia, 1 g/L CaCO3, 0.05 g/L CuSO4·5 H2O and 0.0005 g/L NaI) for fermentation. These cultures were then shaken at 28° C. for 7 days.\nSamples (5 mL) of fermentations were extracted with 5 mL of ethyl acetate by vortexing the emulsion for one minute and separating the layers by centrifugation at 4000×g. The ethyl acetate layer (4 mL) was isolated and dried by SpeedVac at room temperature. The residue was then resuspended in 200 μL of dimethyl sulfoxide and filtered through 0.2 μm polytetrafluoroethylene filters for analysis on an Agilent 1200 HPLC equipped with a Phenomenex Prodigy ODS3 100 Å, 5 μm, 250×4.6 mm column. Injections were 30 μL and separated with a gradient method increasing from 5% to 95% acetonitrile supplemented with 0.1% formic acid over 40 min, followed by a 10 min hold at 95% acetonitrile before re-equilibration. The method was run at 1 mL/min and monitored at 280, 375, 450 and 570 nm.\nWild type M. chersina mycelial stock […] was plated on med 53, Lam et al., 1995, with 2% agar and grown at 28° C. After 7 d, mycelia from the plate were inoculated into 50 mL med 53 liquid fermentation medium in a 125 mL Erlenmeyer flask and shaken at 250 rpm at 28° C. for another 7 d. This starter culture (2 mL) was inoculated into 50-mL H881 liquid medium, Lam et al., 1995, with or without added NaI (0.5 mg/L) in 250-mL Erlenmeyer flask and shaken at 250 rpm and 28° C. After 24 h, […] of 2-mM stock solutions of 5, 13 and 25 in DMSO (sterile filtered using 0.2-μm PTFE filters) were added to the respective flasks with or without NaI supplementation to provide a final concentration of the added compounds of […]. After shaking at 250 rpm and 28° C. for another 2 d, Diaion® HP-20 (0.50 g, sterilized by autoclave) was added to each flask and shaking was continued for another 4 d. After a total 7 d of fermentation, 5 mL from each sample was extracted with 5 mL of EtOAc by vortexing for 1 min. Extracts were centrifuged at 4000×g and 4° C. for 5 min, and 4 mL of each EtOAc layer was dried by SpeedVac without heating. Samples were dissolved in 200 μL DMSO, filtered through 0.2 μm PTFE filters and analyzed on an Agilent 1200 HPLC using a Prodigy ODS3 100 Å, […], 250×4.6 mm column (Phenomenex). A gradient method of 5-95% ACN+0.1% (v/v) formic acid over 40 min, followed by 10 min hold at 95% ACN before column re-equilibration was used at a 1 mL/min flow rate to achieve separation of metabolites. Production of dynemicin and other related metabolites was monitored at 280 nm, 450 nm, and 570 nm. […]"}, "[2]": {"test_system": "cancer cells", "settings": "read-out: In vitro IC50; cited from earlier work"}, "[3]": {"test_system": "transplantable cervical carcinoma HeLa, leukemia P388, L-1210 and melanoma B16", "settings": "cited from earlier work"}, "[4]": {"format": "physicochemical", "excerpt": "With the indication that substituents larger than two carbons probably are not tolerated by the mutasynthetic approach, we focused on repurposing the methyl ketone to generate other smaller substituents. […] Removal of the acetyl protecting group in refluxing HCl-ethanol solution provided the 9-amino-5-iodoanthracene-g-thiolactone 45 (Scheme 4). Incorporation of 45 in a Δorf15 fermentation was again successful, as hoped, producing deshydroxy amino-DYN analogue 50 as the major product, accompanied by the low production of the desdihydroxy DYN analogue 51 (FIG. 31)."}},
  "note": "pIC50: −log10 of the molar value.",
  "data": [
    {"compound": "Nc1ccc2c3c(c4ccccc4cc13)SC2=O", "note": "[aminoanthracene 25, 5-Amino-2H-anthra[9,1-bc]thiophen-2-one]", "values": [
      {"measurement": "Restoration of Dyn production", "setting": "[1]", "result": "failed to rescue Dyn production"}
    ]},
    {"compound": "Neocarzinostatin", "values": [
      {"measurement": "pIC50", "setting": "[2]", "result": "6.05 to 6.65"},
      {"measurement": "In vivo ID50", "setting": "[3]", "result": 0.38, "unit": "mg/kg"}
    ]},
    {"compound": "Calicheamicins", "values": [
      {"measurement": "pIC50", "setting": "[2]", "result": "8.05 to 8.22"},
      {"measurement": "In vivo ID50", "setting": "[3]", "result": "0.0005 to 0.0015", "unit": "mg/kg"}
    ]},
    {"compound": "O=C1Sc2c3ccccc3cc3c(I)ccc1c23", "note": "[iodoanthracene 5, 5-Iodo-2H-anthra[9,1-bc]thiophen-2-one]", "values": [
      {"measurement": "Restoration of Dyn production", "setting": "[1]", "result": "fully restored Dyn production"}
    ]},
    {"compound": "Nc1ccc2cc3c(I)ccc4c3c(c2c1)SC4=O", "note": "[Compound 45, 9-Amino-5-iodo-2H-anthra[9,1-bc]thiophen-2-one]", "values": [
      {"measurement": "Oxidative stability", "setting": "[4]", "result": "oxidatively unstable"}
    ]},
    {"compound": "O=C1Sc2c3ccccc3cc3c(Br)ccc1c23", "note": "[bromoanthracene 13, 5-Bromo-2H-anthra[9,1-bc]thiophen-2-one]", "values": [
      {"measurement": "Effect on Dyn production", "setting": "[1]; wild type M. chersina fermentation medium with added sodium iodide, increasing concentrations of 13", "result": "decrease Dyn production"},
      {"measurement": "Restoration of Dyn production", "setting": "[1]", "result": "not restored"}
    ]}
  ]
}
